Literature values, collected in patent US11883460B2, “Antibiotic compositions for treating bacterial infections” (AGENCY FOR SCIENCE, TECHNOLOGY AND RESEARCH, priority 2014, dated 2024).

Conditions: compared with colistimethate sodium

Substance: Colistin sulfate
- Stability in human plasma: more stable than colistimethate sodium
